Assays:
[1] = Toxicity of the compounds (LD50); format: in vivo; settings: for LD50 at 2160 h: in vivo, period of observation: 90 days (printed with the cortisone ester)
Excerpt: Data on the toxicity of the compounds

rat leukemia L 5222 = assay: Therapy test using the model of rat leukemia L 5222; format: in vivo; settings: for optimal dose: L 5222
Excerpt: In the therapy test using the model of rat leukemia L 5222 (Ivankovic, Zeller, Leukamie L 5222 des Rattenstammes BD IX. Eine durch Athylnitrosoharnstoff induzierte monozytar-myeloische, transplantierbare Form fur zytochemische und chemotherapeutische Studien [Leukemia L 5222 of Rats of Stock BD IX. A monocytic-myeloid, transplantable form induced by ethylnitrosourea for cytochemical and chemotherapeutic studies]. Blut [Blood], 28; 288-292, 1974 and Zeller, Ivankovic, Schmahl, Cancer Research, Vol. 35, 1168-1174, 1975), the cortisone conjugate has good activity. At 176 mg/kg, the total median (replicated experiment!) at 65 days was 3 cured animals out of 6, while with CNU alanine in an equimolar dose with cortisone no cures were attained, with a median survival time of 20 days.

estrogen receptor = estrogen receptor (Homo sapiens, UniProt P03372); assay: biochemical; settings: for affinity relative to estradiol (100%): parameter of 50% bonding inhibition of 3H-tagged estradiol
Sequence of estrogen receptor (P03372 whole entry): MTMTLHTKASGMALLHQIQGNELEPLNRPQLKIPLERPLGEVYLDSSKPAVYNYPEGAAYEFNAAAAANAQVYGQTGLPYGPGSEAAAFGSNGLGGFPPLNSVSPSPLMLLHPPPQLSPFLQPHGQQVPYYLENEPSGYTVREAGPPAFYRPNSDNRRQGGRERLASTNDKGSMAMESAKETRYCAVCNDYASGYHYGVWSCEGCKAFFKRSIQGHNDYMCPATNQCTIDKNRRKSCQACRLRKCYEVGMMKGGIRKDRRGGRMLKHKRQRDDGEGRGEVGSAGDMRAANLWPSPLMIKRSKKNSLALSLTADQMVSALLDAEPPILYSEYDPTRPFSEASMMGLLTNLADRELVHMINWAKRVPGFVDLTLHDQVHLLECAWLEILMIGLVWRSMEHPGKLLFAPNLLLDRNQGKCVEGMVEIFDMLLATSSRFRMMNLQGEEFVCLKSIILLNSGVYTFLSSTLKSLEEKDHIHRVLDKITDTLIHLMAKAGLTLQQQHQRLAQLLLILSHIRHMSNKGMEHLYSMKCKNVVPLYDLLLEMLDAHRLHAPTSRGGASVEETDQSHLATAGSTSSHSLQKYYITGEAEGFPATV
Excerpt: The estrogen-linked compounds were subjected to an estrogen receptor test (Lebercytosol) (Kranzfelder, Schneider, von Angerer, Schoneberger, J. Cancer Research Chim. Oncol. 97, 167-186 (1980)).

C[C@H](NC(=O)N(CCCl)N=O)C(=O)O [CNU alanine, reference compound]
LD50 at 2160 h [1]: 40 to 50 mg/kg
cures (rat leukemia L 5222; equimolar dose with cortisone): no cures
median survival time (rat leukemia L 5222; equimolar dose with cortisone): 20 days

C[C@H](NC(=O)N(CCCl)N=O)C(=O)Oc1ccc2c(c1)CC[C@@H]1[C@@H]2CC[C@]2(C)C(=O)CC[C@@H]12 [N-(2-chloroethyl)-N-nitroso-carbamoyl-L-alanine-estrone-ester]
optimal dose (rat leukemia L 5222): 351 mg/kg
toxicity measured in tumor-bearing animals (rat leukemia L 5222; compared with the cortisone derivative): even lower than with the cortisone derivative
total median (survival) (rat leukemia L 5222; optimal dose 351 mg/kg): 43 days
IC50 (estrogen receptor): 190 nM
affinity relative to estradiol (100%) (estrogen receptor): 4%

CC(NC(=O)N(CCCl)N=O)C(=O)OCC(=O)C1(O)CCC2C3CCC4=CC(=O)CCC4(C)C3C(=O)CC21C [N-(2-chloroethyl)-N-nitroso-carbamoyl-L-alanine-cortisone-21-ester]
LD50 at 2160 h [1]: 220 to 280 mg/kg
reduction in toxicity by linking CNU alanine with cortisone ([1]; relative to CNU alanine): sharp reduction in toxicity (by approximately threefold)
cured animals (rat leukemia L 5222; 176 mg/kg): 3 cured animals out of 6
total median (survival) (rat leukemia L 5222; 176 mg/kg, replicated experiment): 65 days
activity in therapy test (rat leukemia L 5222; rat leukemia L 5222): good activity

C[C@H](NC(=O)N(CCCl)N=O)C(=O)Oc1ccc2c(c1)CC[C@@H]1[C@@H]2CC[C@]2(C)[C@@H](O)CC[C@@H]12 [N-(2-chloroethyl)-N-nitroso-carbamoyl-L-alanine-estradiol-3-ester]
optimal dose (rat leukemia L 5222): 279 mg/kg
cures (rat leukemia L 5222; optimal dose 279 mg/kg): 2 cures
median survival time (rat leukemia L 5222; optimal dose 279 mg/kg): 49 days
IC50 (estrogen receptor): 50 nM
affinity relative to estradiol (100%) (estrogen receptor): 16%

Source: US4609496A, “Steroid esters of N-(2-halogenoethyl)-N-nitroso-carbamoyl-amino acids and peptides thereof, as well as methods for preparing them” (Stiftung Deutsches Krebsforshungszentrum, priority 1982, dated 1986)
